Data as given in patent US20220362311A1, “OPTIMIZED BACTERIA ENGINEERED TO TREAT DISORDERS INVOLVING THE CATABOLISM OF LEUCINE, ISOLEUCINE, AND/OR VALINE” (Synlogic Operating Company, Inc., priority 2019, published 2022).
Like-named read-outs stand apart in the source and are kept apart here.

Columns and labels:
rat = details: cited from earlier work
[1] = High-throughput Adh activity assay in E. coli cell lysates; format: biochemical; details: reduction of isovaleraldehyde to isopentanol; secondary screen
Protocol: Cell growth and enzyme preparation. Strains harboring library plasmids were transformed into an E. coli T7 expression host. 5 μL/well of thawed glycerol stocks were stamped into 500 μL/well of LB+100 ug/mL Carbenicillin (LB-Carb100) in half-height deepwell plates, which were sealed with AeraSeals. Samples were incubated at 37° C. and shaken at 1000 RPM in 80% humidity overnight. 50 μL/well of the resulting precultures were stamped into 450 μL/well of LB-Carb100+1 mM IPTG in half-height deepwell plates, which were sealed with AeraSeals. Samples were incubated at 30° C. and shaken at 1000 RPM in 80% humidity overnight. […]
10 uL of lysate was transferred to a half-area flat-bottom plate containing 90 uL/well assay buffer (50 mM MOPS buffer, 0.4 mM NADH, and 30 mM isovaleraldehyde, pH 7.0). Optical absorbance measurements were taken on a plate reader at 340 nm for 10 minutes. […]
To screen the 3×˜1300-member enzyme libraries, high-throughput methods were developed to screen for LeuDH, KivD, and Adh enzyme activities in E. coli cell lysates. […] Cells were lysed, and enzyme activity was measured in cell lysates using enzyme-specific spectrophotometric assays described above in the method section. […]
For each enzyme family, the full library (˜1300 members each) was measured in biological duplicate, and hits were selected based on the highest activity in a single replicate for each enzyme. […]

## CCC(C)CO (stereo not drawn) [2-methylbutanol]
rat; oral
  Oral LD50 (rat): 4170 mg/kg

## CCC(C)C=O (stereo not drawn) [2-methylbutyraldehyde]
rat; oral
  Oral LD50 (rat): 6884 mg/kg

## CC(C)CO [Isobutanol]
rat; oral
  Oral LD50 (rat): 3350 mg/kg
  Oral NOAEL* (rat) (No-Observed-Adverse-Effect): >1450 mg/kg/day

## CC(C)C(=O)O [Isobutyric acid]
rat; oral
  Oral LD50 (rat): 2230 mg/kg

## CC(C)CCO [Isopentanol]
rat; in vivo, po
  Oral NOAEL* (rat) (No-Observed-Adverse-Effect): 1250 mg/kg/day
rat; oral
  Oral LD50 (rat): >5000 mg/kg

## CC(C)CC=O [Isovaleraldehyde]
rat; oral
  Oral LD50 (rat): 5740 mg/kg

B1: ADH2 enzyme from S. cerevisiae: parent alcohol dehydrogenase ADH2 from S. cerevisiae (protein, UniProt P00331 2-348, looked up)
Alcohol dehydrogenase 2: SIPETQKAIIFYESNGKLEHKDIPVPKPKPNELLINVKYSGVCHTDLHAWHGDWPLPTKLPLVGGHEGAGVVVGMGENVKGWKIGDYAGIKWLNGSCMACEYCELGNESNCPHADLSGYTHDGSFQEYATADAVQAAHIPQGTDLAEVAPILCAGITVYKALKSANLRAGHWAAISGAAGGLGSLAVQYAKAMGYRVLGIDGGPGKEELFTSLGGEVFIDFTKEKDIVSAVVKATNGGAHGIINVSVSEAAIEASTRYCRANGTVVLVGLPAGAKCSSDVFNHVVKSISIVGSYVGNRADTREALDFFARGLVKSPIKVVGLSSLPEIYEKMEKGQIAGRYVVDTSK
[1]
  increase in Adh activity relative to the background lysate activity: did not exhibit activity greater than the background lysate alcohol dehydrogenase activity
